Measured values published in US9279134B2, “Methods for isolating bacteria” (DEINOVE, priority 2009, dated 2016).

What was measured:
indigenous microflora = assay: Soil sample suspension maintained in presence of bleocin, growth of colonies; assay type: cell-based; conditions: 50 μg/ml bleocin
Procedure: (§1) Soil samples containing Deinococcus radiopugnans strain DRH40 were placed in suspension under conditions similar to that of example 2. In place of irradiation, the suspensions were maintained in the absence (control) or presence of 50 μg/ml or 100 μg/ml of bleocin.

[1] = test system: Deinococcus radiopugnans strain DRH40; assay: as above; assay type: cell-based; conditions: 50 μg/ml bleocin
Procedure: as §1

bleocin was tested, and the “effect on indigenous microflora” value (indigenous microflora) was “decreases drastically” and the “growing pink colonies (Deinococcus)” value [1] was “pink colonies are present”.
